Test [1] can be described thus: Binding affinity towards convulsant site of the GABAA receptor was determined in bovine cortical P2 membranes using [3H]TBOB as radioligand. The class given is cell membranes.
Test [2] is described as follows: Binding affinity for convulsant site of GABA-A receptor in bovine cortical P2 membranes using [3H]TBOB as radioligand (Unstable). It is filed as cell membranes, Bos taurus.

Consider 26 molecules from ChEMBL document CHEMBL1127485, “Photoactivatable 2-(4'-azidotetrafluorophenyl)-5-tert-butyl-1,3-dithiane-bis- sulfone and related compounds as candidate irreversible probes for the GABA-gated chloride channels” (J Med Chem, 1994).

In general, Ki refers to a dissociation constant, usually derived from enzyme kinetics or from competition with a known ligand. On to `CC(C)(C)C1CSC(c2cc(O)ccc2[N+](=O)[O-])SC1` (stereo unspecified), for which the Ki in test [1] was determined as 8000 nM.
Still for that read-out and setting: the result for `CC(C)(C)C1CSC(c2cc([N+](=O)[O-])ccc2O)SC1` (stereo unspecified) reads 560 nM; that for `CC(C)(C)C1CS(=O)(=O)C(c2cc(O)c(Br)cc2[N+](=O)[O-])S(=O)(=O)C1` (stereo unspecified), > 30000 nM; that for `CC(C)(C)C12COC(c3ccccc3O)(OC1)OC2`, 59 nM.
The same measure, in the same setting: the same measure for `CC(C)(C)C1CS(=O)(=O)C(c2ccccc2O)S(=O)(=O)C1` (stereo unspecified): 23900 nM; for `CC(C)(C)C1CS(=O)(=O)C(c2cc([N+](=O)[O-])cc(Br)c2O)S(=O)(=O)C1` (stereo unspecified): 530 nM.
On the same count and under the same terms, the result for `CC(C)(C)C12COC(c3ccc(Br)cc3)(OC1)OC2` reads 9 nM.
Consider `CC(C)(C)C1CSC(c2c(F)c(F)c(N=[N+]=[N-])c(F)c2F)SC1` (stereo unspecified), for which the Ki entry in test [2] is given as “Unstable”.
`CC(C)(C)C12COC(c3ccccc3)(OC1)OC2` showed a Ki in test [1] of 18 nM.
Same read-out and setting: the result for `CC(C)(C)C1CSC(c2ccc(Br)cc2)SC1` (stereo unspecified) reads 280 nM.
Molecule `CC(C)(C)C1CSC(C2=CC(=O)C(Br)=CC2=[N+]=[N-])SC1` (stereo unspecified) displayed a Ki in test [1] of 3600 nM.
The molecule `CC(C)(C)C1CS(=O)(=O)C(c2cc([N+](=O)[O-])ccc2O)S(=O)(=O)C1` (stereo unspecified) had a Ki in test [1] of 18000 nM.
The same measure, in the same setting: the result for `CC(C)(C)C1CS(=O)(=O)C(c2ccc(Br)cc2)S(=O)(=O)C1` (stereo unspecified) reads 3 nM; that for `CC(C)(C)C1CSC(c2ccccc2O)SC1` (stereo unspecified), 1800 nM; that for `CC(C)(C)C1CSC(c2ccccc2)SC1` (stereo unspecified), 250 nM.
Molecule `CC(C)(C)C1CS(=O)(=O)C(c2cc(O)ccc2[N+](=O)[O-])S(=O)(=O)C1` (stereo unspecified) showed a Ki in test [1] of 52000 nM.
On the same count and under the same terms, the result for `CC(C)(C)C1CS(=O)(=O)C(C2=CC(=[N+]=[N-])C=CC2=O)S(=O)(=O)C1` (stereo unspecified) reads 250000 nM; that for `CC(C)(C)C1CS(=O)(=O)C(c2c(F)c(F)c(N=[N+]=[N-])c(F)c2F)S(=O)(=O)C1` (stereo unspecified), 180 nM; that for `CC(C)(C)C1CSC(c2cc([N+](=O)[O-])cc(Br)c2O)SC1` (stereo unspecified), 220 nM.
On the same count and under the same terms, the result for `CC(C)(C)C12COC(C3=CC(=O)C(Br)=CC3=[N+]=[N-])(OC1)OC2` reads 600 nM; that for `CC(C)(C)C1CS(=O)(=O)C(c2ccccc2)S(=O)(=O)C1` (stereo unspecified), 510 nM; that for `CC(C)(C)C1CSC(c2cc(O)c(Br)cc2[N+](=O)[O-])SC1` (stereo unspecified), 4500 nM.
For the molecule `CC(C)(C)C1CS(=O)(=O)C(C2=CC(=[N+]=[N-])C=C(Br)C2=O)S(=O)(=O)C1` (stereo unspecified), the Ki in test [1] is > 30000 nM.
Same read-out and setting: the result for `CC(C)(C)C1CSC(C2=CC(=[N+]=[N-])C=CC2=O)SC1` (stereo unspecified) reads 14000 nM; that for `CC(C)(C)C1CSC(C2=CC(=O)C=CC2=[N+]=[N-])SC1` (stereo unspecified), 30000 nM; that for `CC(C)(C)C1CSC(C2=CC(=[N+]=[N-])C=C(Br)C2=O)SC1` (stereo unspecified), 2200 nM.
